The assay has as its system recombinant NL-Rluc virus. In words: Inhibition of HIV replication (NL-Rluc virus in MT-2 cells, luciferase readout). The conditions noted are these: Human immunodeficiency virus 1, MT2, 120 h. In kind it is cell-based.

The values that follow come from patent US9663536B2, “Inhibitors of human immunodeficiency virus replication” (priority 2013, dated 2017).

As usually defined, the EC50 is the concentration giving half of the maximal effect.

Consider `Cc1nc2cc3nn2c(c1[C@H](OC(C)(C)C)C(=O)O)N1CCC(C)(C/C=C/CCc2ccc(F)cc2Cc2cnc-3s2)CC1` (single isomer, unassigned) [Example 23], for which the EC50 stood at 7 nM.

Consider `Cc1nc2cc3nn2c(c1[C@H](OC(C)(C)C)C(=O)O)N1CCC(C)(CC1)OCCCCCc1cccc(c1)Cc1cnc-3s1` [Example 4, (2S)-2-(tert-Butoxy)-2-{4,26-dimethyl-25-oxa-32-thia-1,5,7,8,11-pentaazahexacyclo[24.2.2.1^6,9.1^10,13.1^15,19.0^2,7]tritriaconta-2,4,6(33),8,10,12,15(31),16,18-nonaen-3-yl}acetic acid], for which the EC50 worked out at 22 nM.

In the case of `Cc1nc2cc3nn2c(c1[C@H](OC(C)(C)C)C(=O)O)N1CCC(C)(CC/C=C/COc2ccccc2Cn2cc-3cn2)CC1` [Example 41], the EC50 came out at 3 nM.

`Cc1nc2cc3nn2c(c1[C@H](OC(C)(C)C)C(=O)O)N1CCC(C)(CC1)OC/C=C/CCc1cccc(c1)Cc1cnc-3s1` [Example 3, (2S)-2-(tert-Butoxy)-2-[(22E)-4,26-dimethyl-25-oxa-32-thia-1,5,7,8,11-pentaazahexacyclo[24.2.2.1^6,9.1^10,13.1^15,19.0^2,7]tritriaconta-2,4,6(33),8,10,12,15(31),16,18,22-decaen-3-yl]acetic acid]: the EC50 is 3 nM.

In the case of `Cc1nc2cc3nn2c(c1[C@H](OC(C)(C)C)C(=O)O)N1CCC(C)(CC1)OC/C=C/COc1ccccc1Cc1cnn-3c1` [Example 26, (2S)-2-(tert-Butoxy)-2-[(23E)-4,27-dimethyl-21,26-dioxa-1,5,7,8,10,11-hexaazahexacyclo[25.2.2.1^6,9.1^10,13.0^2,7.0^15,20]tritriaconta-2,4,6(33),8,11,13(32),15(20),16,18,23-decaen-3-yl]acetic acid], the EC50 turned out to be 2 nM.

`Cc1nc2cc3nn2c(c1[C@H](OC(C)(C)C)C(=O)O)N1CCC(C)(CC1)OCCCCOc1c(F)cccc1Cc1cnn-3c1` [Example 28, (2S)-2-(tert-Butoxy)-2-{19-fluoro-4,27-dimethyl-21,26-dioxa-1,5,7,8,10,11-hexaazahexacyclo[25.2.2.1^6,9.1^10,13.0^2,7.0^15,20]tritriaconta-2,4,6(33),8,11,13(32),15(20),16,18-nonaen-3-yl}acetic acid]: the half-maximal effective concentration (EC50) is 11 nM.

Consider `Cc1nc2cc3nn2c(c1[C@H](OC(C)(C)C)C(=O)O)N1CCC(C)(CC1)OCCCCOc1ccc(F)cc1Cc1cnn-3c1` [Example 30, (2S)-2-(tert-Butoxy)-2-{17-fluoro-4,27-dimethyl-21,26-dioxa-1,5,7,8,10,11-hexaazahexacyclo[25.2.2.1^6,9.1^10,13.0^2,7.0^15,20]tritriaconta-2,4,6(33),8,11,13(32),15(20),16,18-nonaen-3-yl}acetic acid], for which the EC50 was found to be 2 nM.

For `Cc1nc2cc3nn2c(c1[C@H](OC(C)(C)C)C(=O)O)N1CCC(C)(CC1)OCCCCOc1ccccc1Cc1cnc-3s1` [Example 5, (2S)-2-(tert-Butoxy)-2-{4,27-dimethyl-21,26-dioxa-32-thia-1,5,7,8,11-pentaazahexacyclo[25.2.2.1^6,9.1^10,13.0^2,7.0^15,20]tritriaconta-2,4,6(33),8,10,12,15(20),16,18-nonaen-3-yl}Acetic Acid], the EC50 came out at 6 nM.

As for `Cc1nc2cc3nn2c(c1[C@H](OC(C)(C)C)C(=O)O)N1CCC(C)(CC1)OCCCCCOc1ccccc1Cc1cnn-3c1` [Example 33, (2S)-2-(tert-Butoxy)-2-{4,28-dimethyl-21,27-dioxa-1,5,7,8,10,11-hexaazahexacyclo[26.2.2.1^6,9.1^10,13.0^2,7.1^15,20]tetratriaconta-2,4,6(34),8,11,13 (33), 15 (20), 16,18-nonaen-3-yl}acetic acid], the EC50 came to 2 nM.

As for `Cc1nc2cc3nn2c(c1[C@H](OC(C)(C)C)C(=O)O)N1CCC(C)(CC1)OCCCCOc1ccccc1Cc1cnc-3o1` [Example 6, (2S)-2-(tert-Butoxy)-2-{4,27-dimethyl-21,26,32-trioxa-1,5,7,8,11-pentaazahexacyclo[25.2.2.1^6,9.1^10,13.0^2,7.0^15,20]tritriaconta-2,4,6(33),8,10,12,15(20),16,18-nonaen-3-yl}acetic acid], the half-maximal effective concentration (EC50) worked out at 4 nM.

As to `Cc1nc2cc3nn2c(c1[C@H](OC(C)(C)C)C(=O)O)N1CCC(C)(CC1)OC/C=C/COc1c(F)cccc1Cc1cnn-3c1` [Example 27, (2S)-2-(tert-Butoxy)-2-[(23E)-19-fluoro-4,27-dimethyl-21,26-dioxa-1,5,7,8,10,11-hexaazahexacyclo[25.2.2.1^6,9.1^10,13.0^2,7.0^15,20]tritriaconta-2,4,6(33),8,11,13(32),15(20),16,18,23-decaen-3-yl]acetic acid], the half-maximal effective concentration (EC50) stood at 48 nM.

Consider `Cc1nc2cc3nn2c(c1[C@H](OC(C)(C)C)C(=O)O)N1CCC(C)(CC1)OCCCCOc1ccccc1Cc1cnn-3c1` [Example 25, (2S)-2-(tert-Butoxy)-2-{4,27-dimethyl-21,26-dioxa-1,5,7,8,10,11-hexaazahexacyclo[25.2.2.1^6,9.1^10,13.0^2,7.0^15,20]tritriaconta-2,4,6(33),8,11,13(32),15(20),16,18-nonaen-3-yl}acetic acid], for which the EC50 came to 5 nM.

With `Cc1nc2cc3nn2c(c1[C@H](OC(C)(C)C)C(=O)O)N1CCC(C)(C/C=C/CCc2cc(F)ccc2Cc2cnc-3s2)CC1` (single isomer, unassigned) [Example 18], the EC50 is 11 nM.

In the case of `Cc1nc2cc3nn2c(c1[C@H](OC(C)(C)C)C(=O)O)N1CCC(C)(CC/C=C/CCc2ccc(F)cc2Cc2cnc-3s2)CC1` (single isomer, unassigned) [Example 21], the EC50 is 13 nM.

In the case of `Cc1nc2cc3nn2c(c1[C@H](OC(C)(C)C)C(=O)O)N1CCC(C)(CC1)OCCCC[C@@H](C)Oc1ccccc1Cc1cnc-3s1` [Example 11], the EC50 was 3 nM.

Turning to `Cc1nc2cc3nn2c(c1[C@H](OC(C)(C)C)C(=O)O)N1CCC(C)(CCCCCOc2ccccc2Cn2cc-3cn2)CC1` [Example 40, (2S)-2-(tert-Butoxy)-2-{4,27-dimethyl-21-oxa-1,5,7,8,12,13-hexaazahexacyclo[25.2.2.1^6,9.1^10,13.0^2,7.0^15,20]tritriaconta-2,4,6(33),8,10(32),11,15(20),16,18-nonaen-3-yl}acetic acid], the EC50 worked out at 4 nM.

For the molecule `Cc1nc2cc3nn2c(c1[C@H](OC(C)(C)C)C(=O)O)N1CCC(C)(CC/C=C/COc2ccccc2Cc2cnc-3s2)CC1` [Example 24, (2S)-2-(tert-Butoxy)-2-[(23E)-4,27-dimethyl-21-oxa-32-thia-1,5,7,8,11-pentaazahexacyclo[25.2.2.1^6,9.1^10,13.0^2,7.0^15,20]tritriaconta-2,4,6(33),8,10,12,15(20),16,18,23-decaen-3-yl]acetic Acid], the EC50 came to 11 nM.

On to `Cc1nc2cc3nn2c(c1[C@H](OC(C)(C)C)C(=O)O)N1CCC(C)(CC/C=C/C[C@@H](C)Oc2cc(F)ccc2Cc2cnc-3s2)CC1` [Example 19, (2S)-2-(tert-Butoxy)-2-[(22R,24E)-18-fluoro-4,22,28-trimethyl-21-oxa-33-thia-1,5,7,8,11-pentaazahexacyclo[26.2.2.1^6,9.1^10,13.0^2,7.0^15,20]tetratriaconta-2,4,6(34),8,10,12,15(20),16,18,24-decaen-3-yl]acetic acid], for which the EC50 was found to be 17 nM.

For `Cc1nc2cc3nn2c(c1[C@H](OC(C)(C)C)C(=O)O)N1CCC(C)(CC/C=C/COc2cccc(c2)Cc2cnn-3c2)CC1` [Example 37], the EC50 amounted to 3 nM.
